Ends that are not written are not given here.
Experiments:
[1] = test system: patients treated for depression; settings: 6630 patients, six or more repeated parenteral infusions for depression; cited from earlier work
[2] = test system: patients with eating disorders; settings: 10-hour infusions of 20 mg/hour; cited from earlier work
[3] = test system: patients; settings: usually; rarely longer than 2 hours; cited from earlier work
[4] = up to 4 doses of 0.1-0.5 mg/kg IV over 2 weeks, 8-month follow-up; cited from earlier work
[5] = test system: healthy volunteers; settings: 80-minute infusion of 0.4 or 0.8 mg/kg, 3 days later; cited from earlier work
[6] = test system: chronic anorexia nervosa; experiment: Case study: ketogenic diet followed by IV ketamine infusions in a patient with chronic anorexia nervosa; assay type: in vivo, human
[7] = 10 4-hour infusions of up to 20 mg/hour; cited from earlier work
[8] = in vivo; cited from earlier work
[9] = in vivo; cited from earlier work; remark: listed apart in the source
[10] = test system: animal models of brain injury and stroke; settings: cited from earlier work
[11] = in vivo; cited from earlier work; remark: listed apart in the source
[12] = test system: rodent models of depression; settings: cited from earlier work
[13] = in vivo, cited from earlier work

CNC1(c2ccccc2Cl)CCCCC1=O (racemic) [ketamine, (RS)-2-(2-chlorophenyl)-2-(methylamino)cyclohexanone]
patients with a side effect that led to discontinuation of treatment [1]: 0.7%
side effects (headache, nausea, sedation, revival of distant memories) [2]: no longer occurred after the first infusion or were no longer seen as unpleasant
duration of dissociative symptoms [3]: less than 60 minutes
adverse events [4]: no adverse events
residual effects [5]: does not result in any residual effects
onset of effect on anorexic thoughts (AN voice) after first infusion ([6]; 40-minute IV infusion 0.75 mg/kg (42.68 mg) after 3 months on ketogenic diet, moderate ketosis for 14 days): Within one hour, they felt the AN voice was weakening
anorexia symptoms by the end of treatment ([6]; four infusions over 15 days (0.75, 1.0, 1.1, 1.2 mg/kg) on ketogenic diet): they no longer felt anorexic any more
compulsive exercise by the end of treatment ([6]; four infusions over 15 days on ketogenic diet): They could exercise and stop exercising at their own wish
BMI ([6]; throughout the treatment (duration 15 days) and months after): ~20.8
patients experiencing restlessness, headaches, or significant heart rate increases [7]: 7-13%

N[C@@]1(c2ccccc2Cl)CCC[C@@H](O)C1=O [(2R,6R)-HNK]
hypnotic effect [8]: non-hypnotic
role in antidepressant effects of ketamine [8]: essential for the antidepressant effects of ketamine

CN[C@@]1(c2ccccc2Cl)CCCCC1=O [(R)-ketamine]
antidepressant effects and psychotomimetic side effects [9]: rapid-onset and sustained antidepressant effects without psychotomimetic side effects

C[C@@H]([C@@H](O)c1ccc(O)cc1)N1CCC(O)(c2ccccc2)CC1 [CP-101,606]
protection [10]: protective

Cc1ncc2n1-c1ccc(Cl)cc1C(c1ccccc1F)=NC2 [Midazolam]
half-life (t½) [11]: 2.5 h

C[C@@H](CN1CCC(Cc2ccccc2)CC1)[C@@H](O)c1ccc(O)cc1 [Ro 25-6981]
antidepressant actions [12]: rapid antidepressant actions

Thr-Pro-Pro-Thr-NH2 (TPPT-NH2) [Rapastinel, amidated tetrapeptide, NMDA receptor glycine site partial agonist]
oral activity ([13]; po): not active orally
blood brain barrier crossing [13]: rapidly crosses the blood brain barrier

— patent publication US12144786B2 (priority 2020, dated 2024)
